Among the data in paper PMC10004487, “Flavonoids from the Roots of Sophora flavescens and Their Potential Anti-Inflammatory and Antiproliferative Activities” (Molecules, 2023) are IC50 and CC50 values, retold here.

As usually defined, the CC50 is the concentration that lowers cell viability or growth by half. The low end stands for greater toxicity to the cells, the high end for lower toxicity to the cells.

Structures can show the parent of a compound that is named as a salt. Where two headings read alike, the source gives them in different places.

The subject of data set [1] is LPS-induced NO production in RAW 264.7 macrophages. Kind of data set: Inhibition of LPS-induced NO production in macrophages (Griess reagent). The data set is classed as cell-based, Murine. As to conditions: Mus musculus, RAW264.7, read-out: IC50 (50% inhibitory concentration), NO production inhibition. Here is the method: NO is one of the immune effectors used by macrophages to defend our bodies against intracellular pathogens. […] NO production inhibition (%) = [(O.DLPS − O.DDrug)/(O.DLPS − O.DBlank)] × 100%. The determination of IC50 was calculated using probit analysis in SPSS version 21.0.
(§1) Murine macrophages (RAW 264.7) were cultured in Dulbecco’s modified Eagle’s medium (DMEM) supplemented with the addition of 10% fetal bovine serum (FBS) and 1% streptomycin (10,000 μg/mL)-penicillin (10,000 U/mL) at 37 °C in a humidified incubator under 5% CO2. HepG2 cells were cultured at 37 °C under 5% CO2. The optimal fermentation culture medium comprised DMEM, 1% mixed penicillin (10,000 U mL^−1), 1% HEPES (BioFroxx, Hesse, Einhausen), and 10% fetal bovine serum (FBS), as well as streptomycin (SM) (10,000 μg/mL^−1) fluid. In all experiments, cells were left to acclimate for 24 h before any treatments.
Activated macrophage cells could express inducible nitric oxide synthase (iNOS), catalyzing the production of NO from L-arginine. […] Afterward, costimulation for 24 h at 37 °C was carried out in an incubator under 5% CO2. Then, Griess reagents I and II (100 μL) were mixed with cell culture medium (70 μL). Prior to measuring the optical density, plates were incubated at room temperature for 10 min, and the absorbance at 540 nm was measured using a Thermo Fisher Scientific microplate reader. N(G)-monomethyl-L-arginine, monoacetate salt (L-NMMA), and the medium were used as positive and negative controls, respectively.

The nature of data set [2]: Cytotoxicity on RAW 264.7 macrophages (MTT cell viability). Format: cell-based, Murine. As to conditions: mouse. Here is the method: The potential cytotoxicity of compounds on RAW 264.7 macrophages cells was determined before executing further studies. Macrophage cells were treated with compounds, and a mitochondria colorimetric (MTT) assay was used to test cell survival.
as §1
To measure cell viability, an MTT assay was performed. […] After washing twice with a PBS buffer, 20 μL of the MTT solution was added to each well, and incubation continued for 4 h. Optical density (O.D) was measured at 490 nm by a microplate reader (Thermo Fisher Scientific, Waltham, MA, USA). The relative cell viability was calculated in contrast to the normal control group.

The next data set has as its system HepG2 cells. Briefly: Antiproliferative MTT assay on HepG2 cell lines. The data set is classed as cell-based, Human. As to conditions: read-out: IC50 (50% inhibitory concentration), antiproliferative effect, 24 and 48 h of incubation, mean ± SD of 3 tests. As for the experimental part: Inhibitory rate (%) = [(O.DDrug − O.DBlank)/(O.DControl − O.DBlank)] ×100%. The IC50 values were calculated with probit analysis using software SPSS version 21.0.
as §1
Briefly, the cells were incubated in 96-well microplates (1 × 10^5 per well) and allowed to adhere for 24 h before drug administration. Then, the cell lines were treated with test compounds 1–36 at five concentrations (3.12, 6.25, 12.5, 25, and 50 μM). At 24 and 48 h of incubation, cells were treated with MTT (200 µL, 5.0 mg/mL) and dissolved in the culture medium, for 1 h under at 37 °C under a 5% CO2 humidified atmosphere. The MTT was then removed carefully and resolved with DMSO (150 μL/well). Optical density was recorded using a Thermo Fisher Scientific microplate reader at 490 nm. Cisplatin (CP) and medium were used as positive and negative controls, respectively.
(In general: Tetrazolium dyes change colour on reduction, which living cells bring about.)

The mark [3] stands for this setting: RAW 264.7 pretreated with compound 1 h, then LPS 1 μg/mL for 24 h, Griess, mean ± SD of 3 tests.

In the case of `CC(C)=CCc1c(O)c(CC=C(C)C)c2c(c1O)C(=O)C[C@@H](c1ccc(O)cc1O)O2` [Compound 15, kushenol E], the IC50 in data set [1] (setting [3]) amounted to 9.3 ± 0.7 µM. This molecule registered a CC50 in data set [2] of 18.8 ± 0.3 µM.
The like results for `C=C(C)[C@H](CC=C(C)C)Cc1c(O)cc(OC)c2c1O[C@H](c1ccc(O)cc1O)CC2=O` [Compound 13, kurarinone] were, in that order, 14.4 ± 0.4 µM and 33.8 ± 1 µM.
Consider `CC(C)=CCc1c(O)cc(O)c2c1O[C@H](c1ccc(O)cc1O)CC2=O` [Compound 5, leachianone G], for which the IC50 in the data set with HepG2 cells (Homo sapiens) came to 37.6 ± 0.7 µM.
`[H]/N=C(/NC)NCCC[C@H](N)C(=O)O` [L-NMMA, N(G)-monomethyl-L-arginine, monoacetate salt, reference compound]: the IC50 in data set [1] came to 21.8 ± 0.9 µM. In data set [2] (RAW 264.7 macrophages, MTT, compound 1 h then LPS 1 μg/mL 24 h, mean ± SD of 3 tests), the CC50 is over 50 µM.
Take `COc1cc(O)c(CC=C(C)C)c2c1C(=O)CC(c1ccc(O)cc1)O2` (stereo not shown) [Compound 2, isoxanthohumol]: in data set [1] (setting [3]), the IC50 worked out at 8.4 ± 0.7 µM. This molecule also came in with a CC50 in data set [2] of over 50 µM.
Regarding `CC(C)=CCc1c(O)cc(O)c2c1O[C@H](c1ccc(O)cc1)CC2=O` [Compound 1, sophorafiavanone B], in the data set with HepG2 cells (Homo sapiens), the IC50 is 34.9 ± 0.3 µM.
Consider `C=C(C)C(CC=C(C)C)Cc1c(O)cc(O)c2c(=O)c(O)c(-c3ccc(O)cc3)oc12` (stereo not shown) [Compound 22, 8-lavandulylkaempferol], for which the values for the IC50 (in data set [1] (setting [3]); with HepG2 cells (Homo sapiens)) were 5.7 ± 0.4 µM and 0.46 ± 0.1 µM, respectively. The CC50 in data set [2] was found to be 13.8 ± 0.6 µM.
Consider `C=C(C)[C@H](CC=C(C)C)Cc1c(O)cc(OC)c2c1O[C@H](c1ccc(O)cc1O)[C@@H](O)C2=O` [Compound 29, kushenol I], for which, in data set [1] (setting [3]), the IC50 was determined as 7.2 ± 0.6 µM. The cytotoxic concentration (CC50) in data set [2] came to 20.6 ± 1.1 µM.
With `COc1ccc(-c2oc3c(CC=C(C)C)c(O)cc(O)c3c(=O)c2O)cc1O` [Compound 21, 8-(3,3-dimethylallyl)-tamarixetin], the IC50 with HepG2 cells (Homo sapiens) was determined as 26.4 ± 0.3 µM.
The same measure, in the same setting: then `C=C(C)C(CC=C(C)C)Cc1c(O)c(CC=C(C)C)c(O)c2c1O[C@H](c1ccc(O)cc1O)CC2=O` (stereo partly shown) [Compound 16, kushenol B], with 30.8 ± 1.1 µM.
On to xanthogalenol [Compound 34], for which the IC50 with HepG2 cells was found to be 48.6 ± 0.8 µM.
Consider `CC(C)=CCc1c(O)cc(O)c2c(=O)c(O)c(-c3ccc(O)cc3)oc12` [Compound 19, noranhyoicaritin], for which the IC50 was found to be 12.4 ± 0.9 µM in data set [1] (setting [3]) and 41.4 ± 0.6 µM with HepG2 cells (Homo sapiens). The same molecule returned a half-maximal cytotoxic concentration (CC50) in data set [2] of over 50 µM.
With `N.N.[Cl][Pt][Cl]` [Cisplatin, reference compound], in the data set with HepG2 cells, the IC50 amounted to 24.5 ± 0.8 µM.
